Data taken from the NIST ThermoML archive (doi:10.1021/je800636k).

Test: xn = mol fraction of the nth substance listed
Settings: 101 kPa, Liquid; for electrical conductivity: Qcond 2400 VWR international / cell constant, 1.05; for viscosity: Concentric cylinders viscometry; for mass density: Vibrating tube method

CCCCn1cc[n+](C)c1C.[N-]=[N+]=[N-] [1-butyl-2,3-dimethylimidazolium azide] + CCCCn1cc[n+](C)c1C.F[B-](F)(F)F
Settings	electrical conductivity [S/m]	mass density [kg/m3]	viscosity [mPa·s]
303.15 K, x1 = 0.25	0.0809	–	–
303.15 K, x1 = 0.5	0.0608	–	–
303.15 K, x1 = 0.75	0.0604	–	–
303.15 K, x1 = 1	0.0488	–	–
308.15 K, x1 = 0.25	0.114	–	–
308.15 K, x1 = 0.5	0.0887	–	–
308.15 K, x1 = 0.75	0.0881	–	–
308.15 K, x1 = 1	0.0756	–	–
313.15 K, x1 = 0.25	0.156	1154.97	210.46
313.15 K, x1 = 0.5	0.125	1129.46	292.06
313.15 K, x1 = 0.75	0.124	1098.68	353.89
313.15 K, x1 = 1	0.112	1070.46	338.19
318.15 K, x1 = 0.25	0.208	–	–
318.15 K, x1 = 0.5	0.172	–	–
318.15 K, x1 = 0.75	0.171	–	–
318.15 K, x1 = 1	0.159	–	–
323.15 K, x1 = 0.25	0.271	1148.74	115.24
323.15 K, x1 = 0.5	0.23	1123.48	156.81
323.15 K, x1 = 0.75	0.228	1092.32	183.02
323.15 K, x1 = 1	0.219	1065.14	176.04
328.15 K, x1 = 0.25	0.345	–	–
328.15 K, x1 = 0.5	0.302	–	–
328.15 K, x1 = 0.75	0.299	–	–
328.15 K, x1 = 1	0.294	–	–
333.15 K, x1 = 0.25	0.433	1142.5	68.72
333.15 K, x1 = 0.5	0.388	1117.5	92.5
333.15 K, x1 = 0.75	0.383	1085.96	105.08
333.15 K, x1 = 1	0.383	1059.83	101.63
338.15 K, x1 = 0.25	0.535	–	–
338.15 K, x1 = 0.5	0.489	–	–
338.15 K, x1 = 0.75	0.483	–	–
338.15 K, x1 = 1	0.49	–	–
343.15 K, x1 = 0.25	0.651	1136.27	43.88
343.15 K, x1 = 0.5	0.608	1111.52	58.77
343.15 K, x1 = 0.75	0.599	1079.6	65.45
343.15 K, x1 = 1	0.614	1054.52	63.6
348.15 K, x1 = 0.25	0.783	–	–
348.15 K, x1 = 0.5	0.744	–	–
348.15 K, x1 = 0.75	0.733	–	–
348.15 K, x1 = 1	0.756	–	–
353.15 K, x1 = 0.25	0.929	1130.03	29.62
353.15 K, x1 = 0.5	0.899	1105.54	39.64
353.15 K, x1 = 0.75	0.885	1073.24	43.5
353.15 K, x1 = 1	0.918	1049.21	42.44
358.15 K, x1 = 0.25	1.09	–	–
358.15 K, x1 = 0.5	1.07	–	–
358.15 K, x1 = 0.75	1.06	–	–
358.15 K, x1 = 1	1.1	–	–
363.15 K, x1 = 0.25	1.27	1123.8	20.94
363.15 K, x1 = 0.5	1.27	1099.56	28.06
363.15 K, x1 = 0.75	1.25	1066.87	30.46
363.15 K, x1 = 1	1.3	1043.9	29.82
368.15 K, x1 = 0.25	1.47	–	–
368.15 K, x1 = 0.5	1.49	–	–
368.15 K, x1 = 0.75	1.46	–	–
368.15 K, x1 = 1	1.52	–	–
373.15 K, x1 = 0.25	–	1117.56	15.38
373.15 K, x1 = 0.5	–	1093.58	20.68
373.15 K, x1 = 0.75	–	1060.51	22.27
373.15 K, x1 = 1	–	1038.59	21.87
